Laboratory results from PubChem BioAssay (NCI).
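Where inhibition never reached the appropriate level, the endpoint shown equals the highest concentration tested. Otherwise, values were interpolated linearly from a five-concentration, 48-hour dose response in 96-well plates. The concentration for 50% growth inhibition is given as GI50. TGI: concentration producing complete growth inhibition.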

Experiments:
Assay in all cases: DTP human tumour cell line panel, 48 h; in the data active = GI50 below about 0.43 µM; inactive = the rest
786-0 renal = test system: 786-0 renal
A498 renal = test system: A498 renal
A549 NSCLC = test system: A549 NSCLC
ACHN renal = test system: ACHN renal
BT-549 breast = test system: BT-549 breast
CCRF-CEM leukemia = test system: CCRF-CEM leukemia
DU-145 prostate = test system: DU-145 prostate
EKVX NSCLC = test system: EKVX NSCLC
HCT-116 colon = test system: HCT-116 colon
HCT-15 colon = test system: HCT-15 colon
HL-60(TB) leukemia = test system: HL-60(TB) leukemia
HOP-62 NSCLC = test system: HOP-62 NSCLC
HOP-92 NSCLC = test system: HOP-92 NSCLC
HS 578T breast = test system: HS 578T breast
IGROV1 ovarian = test system: IGROV1 ovarian
K-562 leukemia = test system: K-562 leukemia
KM12 colon = test system: KM12 colon
LOX IMVI melanoma = test system: LOX IMVI melanoma
M14 melanoma = test system: M14 melanoma
MCF7 breast = test system: MCF7 breast
MDA-MB-231 breast = test system: MDA-MB-231 breast
MDA-MB-435 = test system: MDA-MB-435
MOLT-4 leukemia = test system: MOLT-4 leukemia
NCI-H226 lung = test system: NCI-H226 lung
NCI-H460 lung = test system: NCI-H460 lung
NCI-H522 lung = test system: NCI-H522 lung
NCI/ADR-RES ovarian = test system: NCI/ADR-RES ovarian
OVCAR-3 ovarian = test system: OVCAR-3 ovarian
OVCAR-5 ovarian = test system: OVCAR-5 ovarian
OVCAR-8 ovarian = test system: OVCAR-8 ovarian
PC-3 prostate = test system: PC-3 prostate
RPMI-8226 leukemia = test system: RPMI-8226 leukemia
RXF 393 renal = test system: RXF 393 renal
SF-268 CNS = test system: SF-268 CNS
SF-295 CNS = test system: SF-295 CNS
SF-539 CNS = test system: SF-539 CNS
SK-MEL-2 melanoma = test system: SK-MEL-2 melanoma
SK-MEL-5 melanoma = test system: SK-MEL-5 melanoma
SN12C renal = test system: SN12C renal
SR leukemia = test system: SR leukemia
SW-620 colon = test system: SW-620 colon
TK-10 renal = test system: TK-10 renal
U251 CNS = test system: U251 CNS
UACC-257 melanoma = test system: UACC-257 melanoma
UACC-62 melanoma = test system: UACC-62 melanoma
UO-31 renal = test system: UO-31 renal
CAKI-1 renal = test system: CAKI-1 renal
COLO 205 colon = test system: COLO 205 colon
MALME-3M melanoma = test system: MALME-3M melanoma
NCI-H23 lung = test system: NCI-H23 lung
OVCAR-4 ovarian = test system: OVCAR-4 ovarian
SK-MEL-28 melanoma = test system: SK-MEL-28 melanoma
SK-OV-3 ovarian = test system: SK-OV-3 ovarian
SNB-75 CNS = test system: SNB-75 CNS
T-47D breast = test system: T-47D breast

[N-]=[N+]=NCCCn1c2c(c3ccccc3c1=O)C(=O)c1cc3c(cc1-2)OCO3
> 100 µM: TGI (786-0 renal) | TGI (A498 renal) | TGI (A549 NSCLC) | TGI (ACHN renal) | TGI (BT-549 breast) | TGI (CCRF-CEM leukemia) | TGI (DU-145 prostate) | TGI (EKVX NSCLC) | TGI (HCT-116 colon) | TGI (HCT-15 colon) | TGI (HL-60(TB) leukemia) | TGI (HOP-62 NSCLC) | TGI (HOP-92 NSCLC) | TGI (HS 578T breast) | TGI (IGROV1 ovarian) | TGI (K-562 leukemia) | TGI (KM12 colon) | TGI (LOX IMVI melanoma) | TGI (M14 melanoma) | TGI (MCF7 breast) | TGI (MDA-MB-231 breast) | TGI (MDA-MB-435) | TGI (MOLT-4 leukemia) | TGI (NCI-H226 lung) | TGI (NCI-H460 lung) | TGI (NCI-H522 lung) | TGI (NCI/ADR-RES ovarian) | TGI (OVCAR-3 ovarian) | TGI (OVCAR-5 ovarian) | TGI (OVCAR-8 ovarian) | TGI (PC-3 prostate) | TGI (RPMI-8226 leukemia) | TGI (RXF 393 renal) | TGI (SF-268 CNS) | TGI (SF-295 CNS) | TGI (SF-539 CNS) | TGI (SK-MEL-2 melanoma) | TGI (SK-MEL-5 melanoma) | TGI (SN12C renal) | TGI (SR leukemia) | TGI (SW-620 colon) | TGI (TK-10 renal) | TGI (U251 CNS) | TGI (UACC-257 melanoma) | TGI (UACC-62 melanoma) | TGI (UO-31 renal)
inactive: GI50 (786-0 renal) 31.9 µM | GI50 (A498 renal) 75 µM | GI50 (A549 NSCLC) > 100 µM | GI50 (ACHN renal) 24.1 µM | GI50 (BT-549 breast) > 100 µM | GI50 (CCRF-CEM leukemia) 8.3 µM | GI50 (DU-145 prostate) 76 µM | GI50 (EKVX NSCLC) > 100 µM | GI50 (HCT-116 colon) 29.8 µM | GI50 (HCT-15 colon) > 100 µM | GI50 (HL-60(TB) leukemia) 43.6 µM | GI50 (HOP-62 NSCLC) 17.6 µM | GI50 (HOP-92 NSCLC) 28.1 µM | GI50 (HS 578T breast) > 100 µM | GI50 (IGROV1 ovarian) 47.3 µM | GI50 (K-562 leukemia) 25.9 µM | GI50 (KM12 colon) > 100 µM | GI50 (LOX IMVI melanoma) 44.9 µM | GI50 (M14 melanoma) 79.7 µM | GI50 (MCF7 breast) 817 nM | GI50 (MDA-MB-231 breast) > 100 µM | GI50 (MDA-MB-435) > 100 µM | GI50 (MOLT-4 leukemia) 19.6 µM | GI50 (NCI-H226 lung) > 100 µM | GI50 (NCI-H460 lung) 8.25 µM | GI50 (NCI-H522 lung) 15.6 µM | GI50 (NCI/ADR-RES ovarian) 90.9 µM | GI50 (OVCAR-3 ovarian) > 100 µM | GI50 (OVCAR-5 ovarian) > 100 µM | GI50 (OVCAR-8 ovarian) > 100 µM | GI50 (PC-3 prostate) > 100 µM | GI50 (RPMI-8226 leukemia) > 100 µM | GI50 (RXF 393 renal) > 100 µM | GI50 (SF-268 CNS) 81.7 µM | GI50 (SF-295 CNS) 44.1 µM | GI50 (SF-539 CNS) 20.9 µM | GI50 (SK-MEL-2 melanoma) > 100 µM | GI50 (SK-MEL-5 melanoma) 45.6 µM | GI50 (SN12C renal) > 100 µM | GI50 (SW-620 colon) > 100 µM | GI50 (TK-10 renal) 45.3 µM | GI50 (U251 CNS) 28.7 µM | GI50 (UACC-257 melanoma) > 100 µM | GI50 (UACC-62 melanoma) 26.9 µM | GI50 (UO-31 renal) > 100 µM
active: GI50 (SR leukemia) 157 nM

C=CCNc1nc2c(N)ncnc2s1
> 10 µM: TGI (786-0 renal) | TGI (A549 NSCLC) | TGI (ACHN renal) | TGI (CAKI-1 renal) | TGI (CCRF-CEM leukemia) | TGI (COLO 205 colon) | TGI (HL-60(TB) leukemia) | TGI (HOP-62 NSCLC) | TGI (HOP-92 NSCLC) | TGI (IGROV1 ovarian) | TGI (K-562 leukemia) | TGI (M14 melanoma) | TGI (MALME-3M melanoma) | TGI (MCF7 breast) | TGI (MDA-MB-435) | TGI (MOLT-4 leukemia) | TGI (NCI-H23 lung) | TGI (NCI-H460 lung) | TGI (NCI/ADR-RES ovarian) | TGI (OVCAR-4 ovarian) | TGI (OVCAR-5 ovarian) | TGI (RPMI-8226 leukemia) | TGI (RXF 393 renal) | TGI (SF-268 CNS) | TGI (SK-MEL-2 melanoma) | TGI (SK-MEL-28 melanoma) | TGI (SK-MEL-5 melanoma) | TGI (SK-OV-3 ovarian) | TGI (SNB-75 CNS) | TGI (SR leukemia) | TGI (SW-620 colon) | TGI (T-47D breast) | TGI (U251 CNS) | TGI (UACC-62 melanoma)
